Laboratory results: US10927105B1 (Lundbeck La Jolla Research Center, Inc., priority 2017, dated 2021)

Molecular target: MAGL (Homo sapiens (Human), UniProt Q99685)
Assay: In vitro competitive activity-based protein profiling (human prefrontal cortex membrane fractions, FP-Rh probe), MAGL band
Conditions: read-out: MAGL IC50 (μM) (human); human prefrontal cortex membrane fractions
Method: Biological Evaluation In Vitro Competitive Activity-Based Protein Profiling.
Proteomes (mouse brain membrane fraction for mouse assays; human prefrontal cortex membrane fractions for human assays) (50 mL, 1.0 mg/mL total protein concentration) were preincubated with varying concentrations of inhibitors at 37° C. After 30 min, FP-Rh (1.0 mL, 50 mM in DMSO) was added and the mixture was incubated for another 30 min at 37° C. Reactions were quenched with SDS loading buffer (15 μL-4×) and run on SDS-PAGE.

Sequence of MAGL (Q99685 whole entry): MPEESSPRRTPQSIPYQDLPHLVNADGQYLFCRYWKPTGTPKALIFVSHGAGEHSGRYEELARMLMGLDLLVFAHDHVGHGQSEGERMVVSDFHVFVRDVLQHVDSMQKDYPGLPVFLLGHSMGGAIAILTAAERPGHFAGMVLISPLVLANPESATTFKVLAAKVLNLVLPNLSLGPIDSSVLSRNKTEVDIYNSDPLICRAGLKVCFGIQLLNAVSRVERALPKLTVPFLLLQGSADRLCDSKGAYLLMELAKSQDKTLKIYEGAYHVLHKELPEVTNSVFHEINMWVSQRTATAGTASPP

Row | SMILES | IC50
1 | O=C(O)c1nn(C(=O)N2CCC3(CCN(Cc4cc(Cl)ccc4C(F)(F)F)C3)CC2)cc1C(F)(F)F [Example 148, 1-(2-(5-chloro-2-(trifluoromethyl)-benzyl)-2,8-diazaspiro[4.5]-decane-8-carbonyl)-4-(trifluoromethyl)-1H-pyrazole-3-carboxylic acid] | < 0.1 µM
2 | O=C(O)c1nn(C(=O)N2CCC3(CCN(Cc4cccc(Cl)c4C(F)(F)F)C3)CC2)cc1Cl [Example 26, 4-Chloro-1-(2-(3-chloro-2-(trifluoromethyl)benzyl)-2,8-diazaspiro[4.5]decane-8-carbonyl)-1H-pyrazole-3-carboxylic Acid] | < 0.1 µM
3 | NC(=O)c1ccn(C(=O)N2CCC3(CCN(Cc4cccc(C(F)(F)F)c4)C3)CC2)n1 [Example 284, 1-(2-(3-(trifluoromethyl)-benzyl)-2,8-diazaspiro[4.5]-decane-8-carbonyl)-1H-pyrazole-3-carboxamide] | < 0.1 µM
4 | Cc1c(CO[C@@H]2C[C@@H]3CN(C(=O)n4ccc(C(=O)O)n4)C[C@@H]3C2)cccc1C(F)(F)F [Example 289, 1-(cis-5-((2-methyl-3-(trifluoromethyl)-benzyl)oxy)-octahydrocyclopenta-[c]pyrrole-2-carbonyl)-1H-pyrazole-3-carboxylic acid] | < 0.1 µM
5 | NC(=O)c1ccn(C(=O)N2CCC3(CCCN3Cc3cc4ccc(C(F)(F)F)cc4s3)CC2)n1 [Example 22, 1-(1-((6-(Trifluoromethyl)benzo[b]thiophen-2-yl)methyl)-1,8-diazaspiro[4.5]decane-8-carbonyl)-1H-pyrazole-3-carboxamide] | < 0.1 µM
6 | NC(=O)c1ccn(C(=O)N2CCN(Cc3cccc(C(F)(F)F)c3N3CCOCC3)CC2)n1 [Example 199, 1-(4-(2-morpholino-3-(trifluoromethyl)-benzyl)piperazine-1-carbonyl)-1H-pyrazole-3-carboxamide] | < 0.1 µM
7 | Cc1cn(C(=O)N2C[C@H]3C[C@H](OCc4cccc(C(F)(F)F)c4C)C[C@H]3C2)nc1C(=O)O [Example 306, 4-methyl-1-(trans-5-((2-methyl-3-(trifluoromethyl)-benzyl)oxy)-octahydrocyclopenta-[c]pyrrole-2-carbonyl)-1H-pyrazole-3-carboxylic acid] | < 0.1 µM
8 | C[C@@H]1C[C@H](N(C)Cc2cccc(C(F)(F)F)c2)CCN1C(=O)n1ccc(C(N)=O)n1 [Example 257, 1-((2R,4R)-2-methyl-4-(methyl(3-(trifluoromethyl)-benzyl)amino)-piperidine-1-carbonyl)-1H-pyrazole-3-carboxamide] | < 0.1 µM
9 | O=C(O)c1ccn(C(=O)N2CCN(Cc3cccc(Oc4cccc(Cl)c4)c3)CC2)n1 [Example 84, 1-(4-(3-(3-chlorophenoxy)-benzyl)-piperazine-1-carbonyl)-1H-pyrazole-3-carboxylic acid] | < 0.1 µM
10 | CC(C)(O)COc1cccc(CO[C@H]2C[C@@H]3CN(C(=O)n4ccc(C(=O)O)n4)C[C@@H]3C2)c1Cl [Example 38, 1-(trans-5-((2-Chloro-3-(2-hydroxy-2-methylpropoxy)benzyl)oxy)octahydrocyclopenta[c]pyrrole-2-carbonyl)-1H-pyrazole-3-carboxylic Acid] | < 0.1 µM
11 | C[C@@H]1CN(Cc2ccc(-c3ccccc3)cc2Cl)CCN1C(=O)n1ccc(C(=O)O)n1 [Example 291, (R)-1-(4-((3-chloro-[1,1′-biphenyl]-4-yl)methyl)-2-methylpiperazine-1-carbonyl)-1H-pyrazole-3-carboxylic acid] | < 0.1 µM
12 | Cc1cn(C(=O)N2C[C@H]3C[C@H](Oc4cccc(-c5ccccc5)c4)C[C@H]3C2)nc1C(=O)O [Example 280, 1-(trans-5-([1,1′-biphenyl]-3-yloxy)-octahydrocyclopenta-[c]pyrrole-2-carbonyl)-4-methyl-1H-pyrazole-3-carboxylic acid] | < 0.1 µM
13 | O=C(O)c1ccn(C(=O)N2C[C@H]3C[C@H](Oc4cccc(-c5nccs5)c4)C[C@H]3C2)n1 [Example 261, 1-(trans-5-(3-(thiazol-2-yl)phenoxy)-octahydrocyclopenta-[c]pyrrole-2-carbonyl)-1H-pyrazole-3-carboxylic acid] | < 0.1 µM
14 | CC(C)(O)CN(Cc1cccc(C(F)(F)F)c1)C1CCN(C(=O)n2ccc(C(N)=O)n2)CC1 [Example 36, 1-(4-((2-Hydroxy-2-methylpropyl)(3-(trifluoromethyl)benzyl)amino)piperidine-1-carbonyl)-1H-pyrazole-3-carboxamide] | < 0.1 µM
15 | Cc1cc(-c2ccccc2)ccc1CN1CCN(C(=O)n2ccc(C(=O)O)n2)C(C)C1 (centres unmarked) [Example 89, 1-(2-methyl-4-((3-methyl-[1,1′-biphenyl]-4-yl)methyl)-piperazine-1-carbonyl)-1H-pyrazole-3-carboxylic acid] | < 0.1 µM
16 | O=C(O)c1nn(C(=O)N2C[C@H]3C[C@H](OCc4cccc(C(F)(F)F)c4)C[C@H]3C2)cc1Cl [Example 314, 4-chloro-1-(trans-5-((3-(trifluoromethyl)-benzyl)oxy)-octahydrocyclopenta-[c]pyrrole-2-carbonyl)-1H-pyrazole-3-carboxylic acid] | < 0.1 µM
17 | NC(=O)c1ccn(C(=O)N2CCN(Cc3cnccc3C(F)(F)F)CC2)n1 [Example 175, 1-(4-((4-(trifluoromethyl)-pyridin-3-yl)methyl)-piperazine-1-carbonyl)-1H-pyrazole-3-carboxamide] | < 0.1 µM
18 | C[C@H]1C[C@H](N(C)Cc2cccc(C(F)(F)F)c2)CCN1C(=O)n1ccc(C(N)=O)n1 [Example 259, 1-((2S,4R)-2-methyl-4-(methyl(3-(trifluoromethyl)-benzyl)amino)-piperidine-1-carbonyl)-1H-pyrazole-3-carboxamide] | < 0.1 µM
19 | O=C(O)c1ccn(C(=O)N2CCC(OCc3ccc(Cl)c(C(F)(F)F)c3)CC2)n1 [Example 276, 1-(4-((4-chloro-3-(trifluoromethyl)-benzyl)oxy)-piperidine-1-carbonyl)-1H-pyrazole-3-carboxylic acid] | < 0.1 µM

Continued, values first:

Row | IC50 | SMILES
20 | < 0.1 µM | C[C@H]1CN(Cc2cc(F)cc(Oc3ccc(Cl)cc3)c2)CCN1C(=O)n1ccc(C(=O)O)n1 [Example 347, (S)-1-(4-(3-(4-chlorophenoxy)-5-fluorobenzyl)-2-methylpiperazine-1-carbonyl)-1H-pyrazole-3-carboxylic acid]
21 | < 0.1 µM | O=C(O)c1ccn(C(=O)N2CCN(Cc3ccc(C(F)(F)F)cc3N3CC4CCC(C3)O4)CC2)n1 [Example 380, 1-(4-(2-(8-oxa-3-azabicyclo[3.2.1]-octan-3-yl)-4-(trifluoromethyl)-benzyl)piperazine-1-carbonyl)-1H-pyrazole-3-carboxylic acid]
22 | < 0.1 µM | CNC(=O)c1ccn(C(=O)N2C[C@H]3C[C@@H](N(C)Cc4ccc(C(F)(F)F)cc4)C[C@H]3C2)n1 [Example 439, N-methyl-1-(cis-5-(methyl(4-(trifluoromethyl)-benzyl)amino)-octahydrocyclopenta-[c]pyrrole-2-carbonyl)-1H-pyrazole-3-carboxamide]
23 | < 0.1 µM | O=C(O)c1ccn(C(=O)N2CCC3(CCN(Cc4cc(N5CCCC5)ccc4C(F)(F)F)C3)CC2)n1 [Example 391, 1-(2-(5-(pyrrolidin-1-yl)-2-(trifluoromethyl)-benzyl)-2,8-diazaspiro[4.5]-decane-8-carbonyl)-1H-pyrazole-3-carboxylic acid]
24 | < 0.1 µM | Cc1cn(C(=O)N2CCN(Cc3cc(F)cc(Oc4ccc(Cl)cc4)c3)CC2)nc1C(=O)O [Example 346, 1-(4-(3-(4-chlorophenoxy)-5-fluorobenzyl)-piperazine-1-carbonyl)-4-methyl-1H-pyrazole-3-carboxylic acid]
25 | < 0.1 µM | O=C(O)c1ccn(C(=O)N2CCN(Cc3cc(F)cc(Oc4cccc(Cl)c4)c3)CC2)n1 [Example 321, 1-(4-(3-(3-chlorophenoxy)-5-fluorobenzyl)-piperazine-1-carbonyl)-1H-pyrazole-3-carboxylic acid]
26 | < 0.1 µM | NC(=O)c1ccn(C(=O)N2CC3CN(Cc4ccc(C5(O)CCOCC5)cc4C(F)(F)F)CC3C2)n1 (centres unmarked) [Example 396, 1-(5-(4-(4-hydroxytetrahydro-2H-pymn-4-yl)-2-(trifluoromethyl)-benzyl)-octahydropyrrolo-[3,4-c]pyrrole-2-carbonyl)-1H-pyrazole-3-carboxamide]
27 | < 0.1 µM | Cc1cn(C(=O)N2CCN(Cc3cccc(Oc4ccc(Cl)cc4)c3)C[C@@H]2C)nc1C(=O)O [Example 442, (S)-1-(4-(3-(4-chlorophenoxy)-benzyl)-2-methylpiperazine-1-carbonyl)-4-methyl-1H-pyrazole-3-carboxylic acid]
28 | < 0.1 µM | CN(Cc1cc(C(F)(F)F)ccc1N1CCCC1)C1(C)CCN(C(=O)n2ccc(C(=O)O)n2)CC1 [Example 384, 1-(4-methyl-4-(methyl(2-(pyrrolidin-1-yl)-5-(trifluoromethyl)-benzyl)amino)-piperidine-1-carbonyl)-1H-pyrazole-3-carboxylic acid]
29 | < 0.1 µM | O=C(O)c1nn(C(=O)N2CCN(Cc3cccc(Oc4cc(C(F)(F)F)ccn4)c3)CC2)cc1Cl [Example 399, 4-chloro-1-(4-(3-((4-(trifluoromethyl)-pyridin-2-yl)oxy)benzyl)piperazine-1-carbonyl)-1H-pyrazole-3-carboxylic acid]
30 | < 0.1 µM | CNC(=O)c1ccn(C(=O)N2CC3CN(Cc4ccc(N5CCOCC5)cc4C(F)(F)F)CC3C2)n1 (centres unmarked) [Example 440, N-methyl-1-(5-(4-morpholino-2-(trifluoromethyl)-benzyl)-octahydropyrrolo-[3,4-c]pyrrole-2-carbonyl)-1H-pyrazole-3-carboxamide]
31 | < 0.1 µM | O=C(O)c1nn(C(=O)N2CCN(Cc3cccc(Oc4ccc(F)cc4)c3)CC2)cc1Cl [Example 320, 4-chloro-1-(4-(3-(4-fluorophenoxy)-benzyl)-piperazine-1-carbonyl)-1H-pyrazole-3-carboxylic acid]
32 | < 0.1 µM | O=C(O)c1nn(C(=O)N2CC3CN(Cc4cc(Cl)cc(C(F)(F)F)c4)CC3C2)cc1Cl (centres unmarked) [Example 357, 4-chloro-1-(5-(3-chloro-5-(trifluoromethyl)-benzyl)-octahydropyrrolo-[3,4-c]pyrrole-2-carbonyl)-1H-pyrazole-3-carboxylic acid]
